Measured values taken from article PMC4340763 (Journal of immunology (Baltimore, Md. : 1950), 2015).
pIC50, pKd: −log10 of the molar value. Peptide text beside a SMILES is read from it.

biological target: soluble HLA-A*0201 molecules (Homo sapiens, UniProt P04439, D140Y/D185E/D98H/E176V/E277Q/G131W/G231S/I119V/I121R/I166T/I218V/L300P/L318F/N151K/N90K/P208A/P217A/Q86G/Q94H/R138H/R169H/T345S); assay: Binding affinity of synthetic peptides to soluble HLA-A*0201 molecules; conditions: not given

Compound | pIC50 | pKd
CC[C@H](C)[C@H](NC(=O)[C@@H](N)CCCNC(=N)N)C(=O)N[C@@H](CCC(N)=O)C(=O)N[C@@H](CCC(N)=O)C(=O)N[C@@H](Cc1ccc(O)cc1)C(=O)N[C@@H](CCSC)C(=O)N[C@@H](Cc1ccccc1)C(=O)N[C@@H](Cc1ccccc1)C(=O)N[C@@H](CCSC)C(=O)O [VP11/12_197–205] (H-RIQQYMFFM-OH) | 7.09 | 7.08
CSCC[C@H](N)C(=O)N[C@@H](CC(C)C)C(=O)N[C@@H](Cc1c[nH]c2ccccc12)C(=O)N[C@H](C(=O)N[C@H](C(=O)N[C@@H](CC(=O)O)C(=O)N[C@@H](CCCCN)C(=O)N[C@@H](Cc1c[nH]cn1)C(=O)N[C@H](C(=O)O)C(C)C)[C@@H](C)O)[C@@H](C)O [VP11/12_238–246] (H-MLWTTDKHV-OH) | 5.89 | 
CC(C)C[C@H](NC(=O)[C@H](CC(C)C)NC(=O)[C@H](CCC(=O)O)NC(=O)[C@H](CC(N)=O)NC(=O)[C@H](CC(C)C)NC(=O)[C@@H](N)CCCNC(=N)N)C(=O)N[C@@H](C)C(=O)N[C@@H](Cc1ccc(O)cc1)C(=O)N[C@H](C(=O)O)C(C)C [VP11/12_220–228] (H-RLNELLAYV-OH) | 6.15 | 6.15
CC(C)C[C@H](NC(=O)[C@@H](N)Cc1ccccc1)C(=O)N[C@H](C(=O)N[C@@H](CS)C(=O)N[C@H](C(=O)N[C@@H](CC(=O)O)C(=O)N[C@@H](CCCNC(=N)N)C(=O)N[C@@H](CO)C(=O)N[C@H](C(=O)O)C(C)C)[C@@H](C)O)[C@@H](C)O [VP11/12_66–74] (H-FLTCTDRSV-OH) | 7.08 | 7.09
CC(C)C[C@H](NC(=O)[C@H](CCCCN)NC(=O)[C@@H](NC(=O)[C@H](CC(C)C)NC(=O)[C@H](CC(C)C)NC(=O)[C@H](C)NC(=O)[C@H](CO)NC(=O)[C@H](CC(C)C)NC(=O)[C@H](C)N)[C@@H](C)O)C(=O)O [VP11/12_702–710] (H-ALSALLTKL-OH) | 6.50 | 6.50

same assay, conditions: soluble HLA-A*0201 molecules

Compound | binding affinity to soluble HLA-A*0201 molecules (in words)
ILTQYWKYL [VP11/12_127–135] | did not bind
